Target: T1, 5-hydroxytryptamine receptor 1A (Homo sapiens, UniProt P08908)
T1 sequence (P08908 whole entry): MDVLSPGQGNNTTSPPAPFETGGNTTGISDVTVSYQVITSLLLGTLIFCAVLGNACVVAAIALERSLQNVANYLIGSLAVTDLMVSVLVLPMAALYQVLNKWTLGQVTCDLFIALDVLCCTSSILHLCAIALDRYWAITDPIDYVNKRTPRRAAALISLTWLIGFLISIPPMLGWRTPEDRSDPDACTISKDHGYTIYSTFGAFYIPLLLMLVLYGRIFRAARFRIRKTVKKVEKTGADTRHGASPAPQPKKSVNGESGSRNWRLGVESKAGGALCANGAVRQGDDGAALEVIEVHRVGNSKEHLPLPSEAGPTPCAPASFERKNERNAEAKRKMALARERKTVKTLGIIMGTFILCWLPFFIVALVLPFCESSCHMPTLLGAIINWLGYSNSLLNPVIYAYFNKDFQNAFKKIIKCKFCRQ
Assay: Binding affinity to 5HT1A receptor
Settings: read-out: Kd

SMILES	Kd
Fc1ccc([C@@H]2CCNC[C@H]2COc2ccc3c(c2)OCO3)cc1 [PAROXETINE]	30000 nM

Same assay, conditions: read-out: pKd (converted)

SMILES	Kd
CCCN1CC[C@H]2c3c(cccc3OC)CC[C@H]21	0.2 nM
Clc1cncc(N2CCNCC2)n1 [MK-212]	794 nM
COc1ccccc1N1CCN(C[C@@H](C(=O)NC(C)(C)C)c2ccccc2)CC1	1.26 nM
Fc1ccc([C@@H]2CCNC[C@H]2COc2ccc3c(c2)OCO3)cc1 [PAROXETINE]	31600 nM
CN1C[C@@H](NS(=O)(=O)N(C)C)C[C@@H]2c3cccc4c3c(cn4C)C[C@H]21 [MESULERGINE]	158 nM
FC(F)(F)c1cccc(C2CNCCO2)c1 (stereo not given) [FLUMEXADOL]	251 nM
Clc1cccc(N2CCNCC2)c1 [CHLOROPHENYLPIPERAZINE]	100 nM
COc1cccc2c1C[C@@H]1CCN(CC3CC3)[C@@H]1C2	794 nM
O=C1c2ccccc2S(=O)(=O)N1CCCCN1CCN(c2ncccn2)CC1 [IPSAPIRONE]	3.98 nM
C=CCN1C[C@H]2c3c(O)cccc3CC[C@H]21	0.316 nM
C[C@H]1[C@H](c2ccccc2)OCCN1C [PHENDIMETRAZINE]	12600 nM
CN(C)CCc1c[nH]c2ccc(O)cc12 [BUFOTENINE]	3.16 nM
COc1cccc2c1C[C@H]1CCN(CC3CC3)[C@@H]1C2	31.6 nM
CCCN1CC[C@@H]2c3c(cccc3OC)CC[C@@H]21	200 nM
CCCN(CCC)[C@H]1CCc2c(F)ccc(O)c2C1	25.1 nM
O=C(NCCN1CCOCC1)c1ccc(Cl)cc1 [MOCLOBEMIDE]	5010 nM
Cc1nc2ccccn2c(=O)c1CCN1CCC(C(=O)c2ccc(F)cc2)CC1 [PIRENPERONE]	2510 nM
CCc1nn(CCCN2CCN(c3cccc(Cl)c3)CC2)c(=O)n1CCOc1ccccc1 [NEFAZODONE]	158 nM
C=CCN1CC[C@H]2c3ccccc3CC[C@H]21	1 nM
